Reference: patent publication US4826844A, “Substituted 1-(aralkyl-piperazinoalkyl) cycloalkanols” (American Home Products Corporation, priority 1987, dated 1989)
pIC50, pKi: −log10 of the molar value.

Tests used:
dopamine D2 receptors = target: T1, dopamine D2 receptors (Rattus norvegicus, UniProt P61169); assay: inhibition of 3H-haloperidol binding at dopamine D2 receptors in homogenized limbic brain tissue; conditions: for inhibition at 1 µM: read-out: Receptor Binding D2 % Inhibition at 1 μM
T1 construct: found in homogenized limbic brain tissue; from tissue; host or cells: homogenized limbic brain tissue
T1 sequence (P61169 whole entry): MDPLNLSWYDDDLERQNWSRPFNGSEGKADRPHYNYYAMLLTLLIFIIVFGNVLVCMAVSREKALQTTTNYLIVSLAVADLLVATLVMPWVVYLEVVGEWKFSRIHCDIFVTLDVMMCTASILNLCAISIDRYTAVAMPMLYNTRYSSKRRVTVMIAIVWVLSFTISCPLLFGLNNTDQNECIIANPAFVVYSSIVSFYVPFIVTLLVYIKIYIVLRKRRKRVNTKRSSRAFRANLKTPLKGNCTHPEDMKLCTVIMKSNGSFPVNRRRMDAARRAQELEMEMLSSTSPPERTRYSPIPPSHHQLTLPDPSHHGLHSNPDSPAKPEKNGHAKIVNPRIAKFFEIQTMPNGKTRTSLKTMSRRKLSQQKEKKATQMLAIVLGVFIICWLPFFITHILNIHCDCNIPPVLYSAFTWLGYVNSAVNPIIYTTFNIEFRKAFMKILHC
Source text: The actual percentage reduction of ^3 H-haloperidol binding is reported infra and the larger the number, the greater the potential for dopamine D2 receptor binding and antipsychotic activity.

[1] = tested on: synaptosomial uptake of serotonin; assay: inhibition of synaptosomial uptake of serotonin (14C-5-HT); format: biochemical; conditions: synaptosomes
Source text: (§1) The pharmacological test data obtained for a representative number of compounds of this invention in accordance with the standard experimental test procedures disclosed above appear in the following table: […]

[2] = tested on: synaptosomial uptake of norepinephrine; assay: inhibition of synaptosomial uptake of norepinephrine (3H-NE); format: biochemical; conditions: for pIC50 / Neuronal Uptake NE % Inhibition at 10 μM: synaptosomes; for pIC50: read-out: Neuronal Uptake NE IC50
Source text: as §1

5-HT1A receptor = target: T2, 5-HT1A receptor (Rattus norvegicus, UniProt P19327); assay: inhibition of [3H] 8-hydroxy-2-(di-n-propylamino)tetralin binding at 5-HT1A receptor sites; conditions: rat hippocampal tissue
T2 construct: from tissue; host or cells: rat hippocampus
T2 sequence (P19327 1-422): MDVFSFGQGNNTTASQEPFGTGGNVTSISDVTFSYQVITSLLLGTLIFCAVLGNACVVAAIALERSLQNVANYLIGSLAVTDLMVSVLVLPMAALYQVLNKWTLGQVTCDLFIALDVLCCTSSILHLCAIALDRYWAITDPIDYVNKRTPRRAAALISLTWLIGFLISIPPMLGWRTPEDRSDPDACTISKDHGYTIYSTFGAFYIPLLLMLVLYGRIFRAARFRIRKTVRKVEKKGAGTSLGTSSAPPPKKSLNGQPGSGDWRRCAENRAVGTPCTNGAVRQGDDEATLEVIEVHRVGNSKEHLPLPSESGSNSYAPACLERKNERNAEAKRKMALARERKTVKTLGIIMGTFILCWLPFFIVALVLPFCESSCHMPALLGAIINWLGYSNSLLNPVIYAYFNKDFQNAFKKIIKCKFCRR
Source text: 8-hydroxy-2-(di-n-propylamino)tetralin binding at 5-HT binding sites in rat hippocampal tissue, following the procedure of Hall et al., J. Neurochem., 44 1685 (1985).

Structure (SMILES) | inhibition at 1 µM (dopamine D2 receptors; 3H-haloperidol) [%] | inhibition at 1 µM (5-HT1A receptor) [%] | also measured
COc1cccc(C(CCN2CCN(Cc3ccccc3)CC2)C2(O)CCCCC2)c1 (stereo not drawn) [Example 1, 1-[1-(3-Methoxyphenyl)-3-[4-(phenylmethyl)-1-piperazinyl]propyl]cyclohexanol] | – | – | pKi (dopamine D2 receptors; 3H-haloperidol, read-out: Receptor Binding D2 Ki): 6.68; pIC50 ([1]; read-out: Neuronal Uptake 5HT IC50): 6.41; pIC50 [2]: 5.69; pKi (5-HT1A receptor): 8.00; affinity at 5-HT1A receptor binding sites (in words) (5-HT1A receptor): strong affinity at 5-HT1A receptor binding sites
COc1cccc(C(CCN2CCN(c3ncccn3)CC2)C2(O)CCCCC2)c1 (stereo not drawn) [Example 2, 1-[1-(3-Methoxyphenyl)-3-[4-(2-pyrimidinyl)-1-piperazinyl]propyl]cyclohexanol] | 59 | 78 | –
COc1cccc(C(CCN2CCN(c3cncc(Cl)n3)CC2)C2(O)CCCCC2)c1 (stereo not drawn) [Example 3, 1-[3-[4-(6-Chloro-2-pyrazinyl)-1-piperazinyl]-1-(3-methoxyphenyl)propyl]cyclohexanol] | 41 | – | pKi (5-HT1A receptor): 6.91
COc1ccc(C(CCN2CCN(Cc3ccccc3)CC2)C2(O)CCCCC2)cc1 (stereo not drawn) [Example 8, 1-[1-(4-Methoxyphenyl)-3-[4-(phenylmethyl)-1-piperazinyl]propyl]cyclohexanol] | 55 | 99 | Neuronal Uptake 5HT % Inhibition at 10 μM [1]: 67%; pIC50 [2]: 6.21
COc1ccc(C(CCN2CCN(c3cncc(Cl)n3)CC2)C2(O)CCCCC2)cc1 (stereo not drawn) [Example 9, 1-[3-[4-(6-Chloro-2-pyrazinyl)-1-piperazinyl]-1(4-methoxyphenyl)propyl]cyclohexanol] | 15 | 57 | –
COc1ccc(C(CCN2CCN(Cc3cccc(C(F)(F)F)c3)CC2)C2(O)CCCCC2)cc1 (stereo not drawn) [Example 11, 1-[1-(4-Methoxyphenyl)-3-[4-[[3-(trifluoromethyl)phenyl]methyl]-1-piperazinyl]propyl]cyclohexanol] | 100 | 100 | dopamine D2 receptor affinity / binding potential (in words) (dopamine D2 receptors): typical D2 binding potential
COc1ccc(C(CCN2CCN(Cc3ccccc3OC)CC2)C2(O)CCCCC2)cc1 (stereo not drawn) [Example 13] | 77 | 93 | –
COc1ccc(C(CCN2CCN(Cc3ccc(C(F)(F)F)cc3)CC2)C2(O)CCCCC2)cc1 (stereo not drawn) [Example 14, 1-[1-(4-Methoxyphenyl)-3-[4-[[4-(trifuloromethyl)phenyl]methyl]-1-piperazinyl]propyl]cyclohexanol] | 25 | 63 | –
COc1cccc(C(CN2CCN(c3cccc(Cl)c3)CC2)C2(O)CCCCC2)c1 (stereo not drawn) [Example 18] | 39 | 97 | Neuronal Uptake 5HT % Inhibition at 10 μM [1]: 62%; Neuronal Uptake NE % Inhibition at 10 μM [2]: 38%
OC1(C(CN2CCN(c3cccc(Cl)c3)CC2)c2cccc(Cl)c2)CCCCC1 (stereo not drawn) [Example 19, 1-[1-(3-Chlorophenyl)-2-[4-(3-chlorophenyl)-1-piperazinyl]ethyl]cyclohexanol] | 32 | 94 | –
COc1ccc(C(CCN2CCN(c3ncccn3)CC2)C2(O)CCCCC2)cc1 (stereo not drawn) [Example 24] | 11 | – | –
CN1CCN(CC(c2cccc(Cl)c2)C2(O)CCCCC2)CC1 (stereo not drawn) [Example 26, 1-[1-(3-Chlorophenyl)-2-(4-methyl-1-piperazinyl)ethyl]cyclohexanol] | 26 | 0 | Neuronal Uptake 5HT % Inhibition at 10 μM [1]: 33%; antidepressant activity by inhibition of synaptosomial uptake of norepinephrine and/or serotonin (in words) [2]: selective antidepressant activity; pIC50 [2]: 6.74
CN1CCN(CC(c2cccc(C(F)(F)F)c2)C2(O)CCCCC2)CC1 (stereo not drawn) [Example 27, 1-[2-(4-Methyl-1-piperazinyl)-1-[3-(trifluoromethyl)phenyl]ethyl]cyclohexanol] | 0 | 5 | Neuronal Uptake 5HT % Inhibition at 10 μM [1]: 0%; Neuronal Uptake NE % Inhibition at 10 μM [2]: 86%; antidepressant activity by inhibition of synaptosomial uptake of norepinephrine and/or serotonin (in words) [2]: selective antidepressant activity

Now from value to compound, other results behind:

inhibition at 1 µM (dopamine D2 receptors; 3H-haloperidol) [%] | inhibition at 1 µM (5-HT1A receptor) [%] | Structure (SMILES) | also measured
90 | 66 | COc1cccc(C(CCN2CCN(Cc3cccc(Cl)c3)CC2)C2(O)CCCCC2)c1 (stereo not drawn) [Example 4, 1-[3-[4-[(3-Chlorophenyl)methyl]-1-piperazinyl]-1-(3-methoxyphenyl)propyl]cyclohexanol] | dopamine D2 receptor affinity / binding potential (in words) (dopamine D2 receptors): typical D2 binding potential
51 | 97 | COc1cccc(C(CCN2CCN(Cc3ccc(Cl)cc3)CC2)C2(O)CCCCC2)c1 (stereo not drawn) [Example 5, 1-[3-[4-[(4-Chlorophenyl)methyl]-1-piperazinyl]-1-(3-methoxyphenyl)propyl]cyclohexanol] | –
91 | 93 | COc1cccc(C(CCN2CCN(Cc3ccccc3OC)CC2)C2(O)CCCCC2)c1 (stereo not drawn) [Example 6, 1-[1-(3-Methoxyphenyl)-3-[4-[(2-methoxyphenyl)methyl]-1-piperazinyl]propyl]cyclohexanol] | –
89 | 93 | COc1cccc(C(CCN2CCN(Cc3cccc(F)c3)CC2)C2(O)CCCCC2)c1 (stereo not drawn) [Example 7, 1-[3-[4-[(3-Fluorophenyl)methyl]-1-piperazinyl]-1-(3-methoxyphenyl)propyl]cyclohexanol] | –
73 | 99 | COc1ccc(C(CCN2CCN(Cc3cccc(OC)c3)CC2)C2(O)CCCCC2)cc1 (stereo not drawn) [Example 10] | –
95 | 100 | COc1ccc(C(CCN2CCN(Cc3cccc(Cl)c3)CC2)C2(O)CCCCC2)cc1 (stereo not drawn) [Example 12, 1-[3-[4-[(3-Chlorophenyl)methyl]-1-piperazinyl]-1-(4-methoxyphenyl)propyl]cyclohexanol] | –
90 | 91 | COc1cccc(C(CN2CCN(Cc3ccccc3)CC2)C2(O)CCCCC2)c1 (stereo not drawn) [Example 15, 1-[1-(3-Methoxyphenyl)-2-[4-(phenylmethyl)-1-piperazinyl]ethyl]cyclohexanol] | –
